Reference: PMC1950546 (Nucleic Acids Research, 2007)
Where a SMILES comes first, the peptide text is derived from it.

Legend:
PrrC = details: stated in the introduction; cited from earlier work
[1] = biological target: T1, PrrC anticodon nuclease (ACNase), His6-tagged D222E mutant (Escherichia coli, UniProt P17223, D222E); assay: ACNase assay: inhibition of PrrC-catalyzed cleavage of tRNA^Lys or ASL analogs; type: biochemical
T1 sequence (P17223 1-396 D222E): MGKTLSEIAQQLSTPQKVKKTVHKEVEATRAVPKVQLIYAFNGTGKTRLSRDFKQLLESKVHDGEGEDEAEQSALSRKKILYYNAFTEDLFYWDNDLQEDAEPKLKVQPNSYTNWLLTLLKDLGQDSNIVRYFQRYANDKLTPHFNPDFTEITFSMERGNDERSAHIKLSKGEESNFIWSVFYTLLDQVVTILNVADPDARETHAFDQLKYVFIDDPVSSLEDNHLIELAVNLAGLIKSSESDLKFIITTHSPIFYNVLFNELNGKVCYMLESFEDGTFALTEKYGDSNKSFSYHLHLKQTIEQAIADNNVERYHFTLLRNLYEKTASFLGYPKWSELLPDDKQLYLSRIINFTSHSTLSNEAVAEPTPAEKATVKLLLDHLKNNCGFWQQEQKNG

In the case of `Nc1ncnc2c1ncn2[C@@H]1O[C@H](COP(=O)(O)OP(=O)(O)OP(=O)(O)O)[C@@H](O)[C@H]1O` [ATP], the “Affinity for PrrC (range)” value (PrrC) is given as “mM-range”.
In the case of `Nc1nc2c(ncn2[C@@H]2O[C@H](COP(=O)(O)OP(=O)(O)OP(=O)(O)O)[C@@H](O)[C@H]2O)c(=O)[nH]1` [GTP], the “Affinity for PrrC (range)” value (PrrC) is listed as “mM-range”.
Compound `CC(=O)N[C@@H](CCCCN)C(=O)N[C@@H](Cc1ccc(O)cc1)C(=O)NCC(=O)N[C@@H](CC(=O)O)C(=O)N[C@@H](CO)C(=O)N[C@@H](CC(N)=O)C(=O)N[C@@H](CCCCN)C(=O)N[C@@H](CO)C(=O)N[C@@H](Cc1ccccc1)C(=O)N[C@@H](CO)C(=O)N[C@@H](Cc1ccc(O)cc1)C(N)=O` [LARP, Ac-KYGDSNKSFSY-NH2] (Ac-KYGDSNKSFSY-NH2) has an IC50 [1] of roughly 100 µM.
